Key:
velvetleaf [1] = experiment: Test A postemergence; assay type: in vivo, Abutilon theophrasti
Procedure, shortened: (§1)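 Ratings express plant response from 0 (no effect) to 100 (complete control), judged visually against untreated controls after approximately 10 days in the greenhouse. Preemergence applications were made as directed soil sprays onto seeded loam–sand mix, and postemergence applications onto 2–10 cm plants at one- to two-leaf stage.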

barnyardgrass [2] = experiment: Test A postemergence; assay type: in vivo, Echinochloa crus-galli
Procedure, shortened: as §1

corn [3] = experiment: Test A postemergence; assay type: in vivo, Zea mays
Procedure, shortened: as §1

morningglory [4] = experiment: Test A postemergence; assay type: in vivo, Ipomoea spp.
Procedure, shortened: as §1

sedge, umbrella [5] = experiment: Test C flooded paddy test; assay type: in vivo, Cyperus difformis; settings: Flood
Procedure, shortened: (§2)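 Flooded 3 cm over soil; compound into paddy water; depth kept constant. Greenhouse 13–15 d.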

crabgrass, large [6] = experiment: Test A preemergence; assay type: in vivo, Digitaria sanguinalis; settings: preemergence; for Crabgrass, Large plant response rating (0 to 100 scale): 125 g ai/ha, visual injury approx. 10 days after treatment; for Crabgrass, Large plant response rating: 500 g ai/ha, visual injury after approx. 10 days, 0 to 100 scale (0 no effect, 100 complete control)
Procedure, shortened: as §1

foxtail, giant [7] = experiment: Test A postemergence; assay type: in vivo, Setaria faberii
Procedure, shortened: as §1

ducksalad [8] = experiment: Test B flood; assay type: in vivo, Heteranthera limosa; settings: 250 g ai/ha, visual rating on 0 to 100 scale (0 no effect, 100 complete control), 13 to 15 days
Procedure, shortened: (§3)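 Visual ratings on a 0–100 scale, where 0 means no effect and 100 means complete control, were assigned by comparison with controls 13 to 15 days after treatment. Compounds went into paddy water over 2-leaf plants flooded to 3 cm.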

ducksalad [9] = experiment: Test C flooded paddy test; assay type: in vivo, Heteranthera limosa; settings: Flood
Procedure, shortened: as §2

pigweed [10] = experiment: Test A postemergence; assay type: in vivo, Amaranthus retroflexus
Procedure, shortened: as §1

barnyardgrass [11] = experiment: Test A preemergence; assay type: in vivo, Echinochloa crus-galli; settings: preemergence
Procedure, shortened: as §1

barnyardgrass [12] = experiment: Test B flood; assay type: in vivo, Echinochloa crus-galli; settings: 250 g ai/ha, visual rating on 0 to 100 scale (0 no effect, 100 complete control), 13 to 15 days
Procedure, shortened: as §3

rice [13] = experiment: Test C flooded paddy test; assay type: in vivo, Oryza sativa; settings: Flood
Procedure, shortened: as §2

sedge, umbrella [14] = experiment: Test B flood; assay type: in vivo, Cyperus difformis; settings: 250 g ai/ha, visual rating on 0 to 100 scale (0 no effect, 100 complete control), 13 to 15 days
Procedure, shortened: as §3

wheat [15] = experiment: Test A postemergence; assay type: in vivo, Triticum aestivum
Procedure, shortened: as §1

morningglory [16] = experiment: Test A preemergence; assay type: in vivo, Ipomoea spp.; settings: preemergence; for Morningglory plant response rating (0 to 100 scale): 125 g ai/ha, visual injury approx. 10 days after treatment; for Morningglory plant response rating: 500 g ai/ha, visual injury after approx. 10 days, 0 to 100 scale (0 no effect, 100 complete control)
Procedure, shortened: as §1

foxtail, giant [17] = experiment: Test A preemergence; assay type: in vivo, Setaria faberii; settings: preemergence; for Foxtail, Giant plant response rating (0 to 100 scale): 125 g ai/ha, visual injury approx. 10 days after treatment; for Foxtail, Giant plant response rating: 500 g ai/ha, visual injury after approx. 10 days, 0 to 100 scale (0 no effect, 100 complete control)
Procedure, shortened: as §1

barnyardgrass [18] = experiment: Test C flooded paddy test; assay type: in vivo, Echinochloa crus-galli; settings: Flood
Procedure, shortened: as §2

pigweed [19] = experiment: Test A preemergence; assay type: in vivo, Amaranthus retroflexus; settings: preemergence; for Pigweed plant response rating (0 to 100 scale): 125 g ai/ha, visual injury approx. 10 days after treatment; for Pigweed plant response rating: 500 g ai/ha, visual injury after approx. 10 days, 0 to 100 scale (0 no effect, 100 complete control)
Procedure, shortened: as §1

velvetleaf [20] = experiment: Test A preemergence; assay type: in vivo, Abutilon theophrasti; settings: preemergence; for Velvetleaf plant response rating (0 to 100 scale): 125 g ai/ha, visual injury approx. 10 days after treatment; for Velvetleaf plant response rating: 500 g ai/ha, visual injury after approx. 10 days, 0 to 100 scale (0 no effect, 100 complete control)
Procedure, shortened: as §1

corn [21] = experiment: Test A preemergence; assay type: in vivo, Zea mays; settings: preemergence; for Corn plant response rating (0 to 100 scale): 125 g ai/ha, visual injury approx. 10 days after treatment; for Corn plant response rating: 500 g ai/ha, visual injury after approx. 10 days, 0 to 100 scale (0 no effect, 100 complete control)
Procedure, shortened: as §1

wheat [22] = experiment: Test A preemergence; assay type: in vivo, Triticum aestivum; settings: preemergence; for Wheat plant response rating (0 to 100 scale): 125 g ai/ha, visual injury approx. 10 days after treatment; for Wheat plant response rating: 500 g ai/ha, visual injury after approx. 10 days, 0 to 100 scale (0 no effect, 100 complete control)
Procedure, shortened: as §1

crabgrass, large [23] = experiment: Test A postemergence; assay type: in vivo, Digitaria sanguinalis
Procedure, shortened: as §1

rice [24] = experiment: Test B flood; assay type: in vivo, Oryza sativa; settings: 250 g ai/ha, visual rating on 0 to 100 scale (0 no effect, 100 complete control), 13 to 15 days
Procedure, shortened: as §3

[25] = Postemergence, 500 g ai/ha, 0 to 100 scale (0 no effect, 100 complete control)
[26] = postemergence, 125 g ai/ha, about 10 days, visual rating on 0 to 100 scale (0 no effect, 100 complete control)
[27] = 31 g ai/ha, scale 0 to 100 (0 no effect, 100 complete control)
[28] = 62 g ai/ha, scale 0 to 100 (0 no effect, 100 complete control)
[29] = 125 g ai/ha, visual injury, 0 to 100 scale, approx. 10 days
[30] = 500 g ai/ha, visual injury after approx. 10 days, 0 to 100 scale (0 no effect, 100 complete control)

## CCc1cc(C(=O)NC(C)C)nn1Cc1ccnc(OCC(F)(F)F)c1 [Compound 149]
Velvetleaf [1]; [25]
  Velvetleaf plant response rating: 90
Velvetleaf [1]; [26]
  Velvetleaf plant response rating: 30
Barnyardgrass [2]; [25]
  Barnyardgrass plant response rating: 80
Barnyardgrass [2]; [26]
  Barnyardgrass plant response rating: 30
Corn [3]; [25]
  Corn plant response rating: 80
Corn [3]; [26]
  Corn plant response rating: 40
Morningglory [4]; [25]
  Morningglory plant response rating: 100
Morningglory [4]; [26]
  Morningglory plant response rating: 60
sedge, umbrella [5]; [27]
  Plant response rating, Sedge, Umbrella: 60
sedge, umbrella [5]; [28]
  Plant response rating, Sedge, Umbrella: 70
sedge, umbrella [5]; 125 g ai/ha, scale 0 to 100
  Plant response rating, Sedge, Umbrella: 80
crabgrass, large [6]
  Crabgrass, Large plant response rating (0 to 100 scale): 100
  Crabgrass, Large plant response rating: 100
foxtail, giant [7]; [25]
  Foxtail, Giant plant response rating: 80
foxtail, giant [7]; [26]
  Foxtail, Giant plant response rating: 70
Ducksalad [8]
  Plant response rating, Ducksalad: 95
Ducksalad [9]; [27]
  Plant response rating, Ducksalad: 0
Ducksalad [9]; [28]
  Plant response rating, Ducksalad: 55
Ducksalad [9]; 125 g ai/ha, scale 0 to 100
  Plant response rating, Ducksalad: 70
Pigweed [10]; [25]
  Pigweed plant response rating: 100
Pigweed [10]; [26]
  Pigweed plant response rating: 90
Barnyardgrass [11]; [29]
  Barnyardgrass plant response rating: 10
Barnyardgrass [11]; [30]
  Barnyardgrass plant response rating: 60
Barnyardgrass [12]
  Plant response rating, Barnyardgrass: 30
Rice [13]; [27]
  Plant response rating, Rice: 0
Rice [13]; [28]
  Plant response rating, Rice: 0
Rice [13]; 125 g ai/ha, scale 0 to 100
  Plant response rating, Rice: 0
sedge, umbrella [14]
  Plant response rating, Sedge, Umbrella: 95
Wheat [15]; [25]
  Wheat plant response rating: 60
Wheat [15]; [26]
  Wheat plant response rating: 20
Morningglory [16]
  Morningglory plant response rating (0 to 100 scale): 10
  Morningglory plant response rating: 100
foxtail, giant [17]
  Foxtail, Giant plant response rating (0 to 100 scale): 70
  Foxtail, Giant plant response rating: 100
Barnyardgrass [18]; [27]
  Plant response rating, Barnyardgrass: 0
Barnyardgrass [18]; [28]
  Plant response rating, Barnyardgrass: 0
Barnyardgrass [18]; 125 g ai/ha, scale 0 to 100
  Plant response rating, Barnyardgrass: 0
Pigweed [19]
  Pigweed plant response rating (0 to 100 scale): 80
  Pigweed plant response rating: 100
Velvetleaf [20]
  Velvetleaf plant response rating (0 to 100 scale): 20
  Velvetleaf plant response rating: 90
Corn [21]
  Corn plant response rating (0 to 100 scale): 0
  Corn plant response rating: 30
Wheat [22]
  Wheat plant response rating (0 to 100 scale): 0
  Wheat plant response rating: 50
crabgrass, large [23]; [25]
  Crabgrass, Large plant response rating: 90
crabgrass, large [23]; [26]
  Crabgrass, Large plant response rating: 40
Rice [24]
  Plant response rating, Rice: 10

## CCCNC(=O)c1cc(COC)n(Cc2ccnc(C(F)(F)F)c2)n1 [Compound 168]
Velvetleaf [1]; [25]
  Velvetleaf plant response rating: 70
Velvetleaf [1]; [26]
  Velvetleaf plant response rating: 40
Barnyardgrass [2]; [25]
  Barnyardgrass plant response rating: 90
Barnyardgrass [2]; [26]
  Barnyardgrass plant response rating: 50
Corn [3]; [25]
  Corn plant response rating: 80
Corn [3]; [26]
  Corn plant response rating: 20
Morningglory [4]; [25]
  Morningglory plant response rating: 100
Morningglory [4]; [26]
  Morningglory plant response rating: 70
sedge, umbrella [5]; [27]
  Plant response rating, Sedge, Umbrella: 0
sedge, umbrella [5]; [28]
  Plant response rating, Sedge, Umbrella: 50
sedge, umbrella [5]; 125 g ai/ha, scale 0 to 100
  Plant response rating, Sedge, Umbrella: 80
crabgrass, large [6]
  Crabgrass, Large plant response rating (0 to 100 scale): 100
  Crabgrass, Large plant response rating: 100
foxtail, giant [7]; [25]
  Foxtail, Giant plant response rating: 90
foxtail, giant [7]; [26]
  Foxtail, Giant plant response rating: 60
Ducksalad [8]
  Plant response rating, Ducksalad: 90
Ducksalad [9]; [27]
  Plant response rating, Ducksalad: 0
Ducksalad [9]; [28]
  Plant response rating, Ducksalad: 50
Ducksalad [9]; 125 g ai/ha, scale 0 to 100
  Plant response rating, Ducksalad: 70
Pigweed [10]; [25]
  Pigweed plant response rating: 100
Pigweed [10]; [26]
  Pigweed plant response rating: 80
Barnyardgrass [11]; [29]
  Barnyardgrass plant response rating: 20
Barnyardgrass [11]; [30]
  Barnyardgrass plant response rating: 100
Barnyardgrass [12]
  Plant response rating, Barnyardgrass: 20
Rice [13]; [27]
  Plant response rating, Rice: 0
Rice [13]; [28]
  Plant response rating, Rice: 0
Rice [13]; 125 g ai/ha, scale 0 to 100
  Plant response rating, Rice: 0
sedge, umbrella [14]
  Plant response rating, Sedge, Umbrella: 90
Wheat [15]; [25]
  Wheat plant response rating: 40
Wheat [15]; [26]
  Wheat plant response rating: 0
Morningglory [16]
  Morningglory plant response rating (0 to 100 scale): 80
  Morningglory plant response rating: 100
foxtail, giant [17]
  Foxtail, Giant plant response rating (0 to 100 scale): 90
  Foxtail, Giant plant response rating: 100
Barnyardgrass [18]; [27]
  Plant response rating, Barnyardgrass: 0
Barnyardgrass [18]; [28]
  Plant response rating, Barnyardgrass: 0
Barnyardgrass [18]; 125 g ai/ha, scale 0 to 100
  Plant response rating, Barnyardgrass: 0
Pigweed [19]
  Pigweed plant response rating (0 to 100 scale): 100
  Pigweed plant response rating: 100
Velvetleaf [20]
  Velvetleaf plant response rating (0 to 100 scale): 20
  Velvetleaf plant response rating: 100
Corn [21]
  Corn plant response rating (0 to 100 scale): 0
  Corn plant response rating: 20
Wheat [22]
  Wheat plant response rating (0 to 100 scale): 10
  Wheat plant response rating: 70
crabgrass, large [23]; [25]
  Crabgrass, Large plant response rating: 90
crabgrass, large [23]; [26]
  Crabgrass, Large plant response rating: 60
Rice [24]
  Plant response rating, Rice: 20

— patent US20150105252A1, “SUBSTITUTED PYRAZOLES AS HERBICIDES” (E I DU PONT DE NEMOURS AND COMPANY, priority 2013, published 2015)
